Test results: patent publication US9486536B2 (Immunomedics, Inc., priority 2013, dated 2016)

Columns and labels:
[1] = system: gastric (NCI-N87), pancreatic (Capan-1), and breast (MDA-MB-468) human cancer cell lines; assay: 4-day MTS assay, potency of the conjugate; format: cell-based; settings: range over NCI-N87, Capan-1 and MDA-MB-468
Procedure: Retention of antibody binding was confirmed by cell binding assays comparing binding of the conjugate to unconjugated antibody (Chari, 2008, Acc Chem Res 41:98-107). The potency of the conjugate was tested in a 4-day MTS assay using appropriate target cells.

[2] = tolerability / toxicity of hRS7-P2PDox in mice
Procedure: Tumor size was determined by caliper measurements of length (L) and width (W) with tumor volume calculated as (L×W^2)/2. Tumors were measured and mice weighed twice a week. Mice were euthanized if their tumors reached >1 cm^3 in size, lost greater than 15% of their starting body weight, or otherwise became moribund. Statistical analysis for the tumor growth data was based on area under the curve (AUC) and survival time. Profiles of individual tumor growth were obtained through linear curve modeling. An f-test was employed to determine equality of variance between groups prior to statistical analysis of growth curves. A two-tailed t-test was used to assess statistical significance between all the various treatment groups and non-specific controls. For the saline control analysis a one-tailed t-test was used to assess significance. Survival studies were analyzed using Kaplan-Meier plots (log-rank analysis), using the Prism GraphPad Software (v4.03) software package (Advanced Graphics Software, Inc.; Encinitas, Calif.). All doses in preclinical experiments are expressed in antibody amounts. In terms of drug, 100 μg of antibody (5 mg/kg) in a 20-g mouse, for example, carries 1.4 μg-2.8 μg ([…]) of P2PDox equivalent dose when using an ADC with 3-6 drugs/IgG.
Using this dosing regimen, we examined the therapeutic effect of hRS7-P2PDox in 2 human tumor xenograft models, Capan-1 (pancreatic cancer) and NCI-N87 (gastric cancer). Therapy began 7 days after tumor transplantation in nude mice.
Conjugates were prepared and evaluated with mean drug/MAb substitution ratios (MSRs) of ˜6:1 and ˜3:1. Groups of normal mice (n=5) were administered, i.v., single doses of unmodified hRS7 or hRS7-P2PDox with drug substitution of 6.8 or 3.7 (same protein dose), and serum samples were collected at 30 min, 4 h, 24 h, 72 h, and 168 h post-injection. These were analyzed by ELISA for antibody concentration.
Anti-TROP-2 antibody conjugate, hRS7-P2PDox, was evaluated in nude mice bearing NCI-N87 human gastric cancer xenografts by administering a single bolus protein dose of 9 mg/kg, 6.75 mg/kg, 4.5 mg/kg, 2.25 mg/kg, or 1 mg/kg. The therapy was started when the mean tumor volume (mTV) was 0.256 cm^3.

[3] = system: Capan-1 human pancreatic adenocarcinoma xenografts; assay: therapy of Capan-1 xenografts in nude mice; format: in vivo
Procedure: FIG. 2. Therapy in nude mice bearing s.c. human tumor xenografts using 2.25 mg/kg protein dose (0.064 mg/kg of drug dose) of MAb-P2PDox conjugates twice weekly×2 weeks in nude mice with Capan-1 human pancreatic adenocarcinoma xenografts (n=5).
Tumors were measured and mice weighed twice a week.
At 63 days after Capan-1 tumor injection (with therapy starting at 1 days post-innoculation), 0 of 10 mice were alive in the saline control, 10 of 10 mice were alive in mice treated twice weekly×2 weeks with 45 μg of hPAM4-P2PDox, 2 of 10 mice were alive in mice treated twice weekly×2 weeks with 45 μg of hA20-P2PDox, 0 of 10 mice were alive in mice treated twice weekly×4 weeks with 250 μg of hPAM4-SN-38, and 0 of 10 mice were alive in mice treated twice weekly×4 weeks with 250 μg of h20-SN-38.

[4] = system: MDA-MB-468 human breast carcinoma xenografts; assay: therapy of MDA-MB-468 xenografts in nude mice; format: in vivo
[5] = system: BxPC3 human pancreatic carcinoma xenografts; assay: therapy of BxPC3 xenografts in nude mice; format: in vivo
[6] = PK in normal mice, serum antibody by ELISA; format: in vivo; settings: drug substitution 6.8 or 3.7 vs unmodified hRS7
Procedure: These were analyzed by ELISA for antibody concentration. […] The PK parameters (Cmax, AUC, etc.) were similar.

[7] = system: NCI-N87 gastric carcinoma cells; assay: cell binding, conjugate vs unconjugated antibody; set-up: species or system human; settings: 6 molecules of P2PDox per antibody (not shown)
[8] = system: MDA-MB-468, AG S, NCI-N87 and Capan-1 solid tumor cell lines; assay: cytotoxicity of P2PDox-mAb conjugates to target cells; format: cell-based, human; settings: not shown
Text: The cytotoxicity of P2PDox-mAb conjugates to target cells was examined. hRS7-P2PDox and hMN-15-P2PDox were cytotoxic to MDA-MB-468, AG S, NCI-N87 and Capan-1 solid tumor cell lines (not shown). hMN-14-P2PDox was cytotoxic to Capan-1, BxPC-3 and AsPC-1 human pancreatic tumor lines and AGS, NCI-N87 and LS147T human gastric and colonic tumor lines (not shown). hLL2-P2PDOx was cytotoxic to Daudi, Raji, Ramos and JVM-3 hematopoietic tumor lines (not shown). IC50 values for the conjugates were in the nanomolar concentration range (not shown).

[9] = system: Trop-2-positive human pancreatic adenocarcinoma cell line (BxPC-3); assay: ADCC with PBMCs, effector to target ratio 100:1; format: cell-based; settings: 33.3 nM
Procedure: The ADCC activity of various hRS7-ADC conjugates was determined in comparison to hRS7 IgG (FIG. 17). PBMCs were purified from blood purchased from the Blood Center of New Jersey. A Trop-2-positive human pancreatic adenocarcinoma cell line (BxPC-3) was used as the target cell line with an effector to target ratio of 100:1. ADCC mediated by hRS7 IgG was compared to hRS7-Pro-2-PDox, hRS7-CL2A-SN-38, and the reduced and capped hRS7-NEM. All were used at 33.3 nM.

[10] = system: triple-negative breast cancer; assay: treatment of triple-negative breast cancer patients; format: in vivo, human
Procedure: P2PDox-hRS7 ADC is prepared as described in Examples 1 and 3 above. Patients with triple-negative breast cancer who had failed at least two standard therapies receive 3 cycles of 70 mg P2PDox-hRS7 injected i.v. every 3 weeks. Objective responses are observed at this dose level of P2PDox-hRS7, with an average decrease in tumor volume of 35%, after two cycles of therapy. All serum samples evaluated for human anti-hRS7 antibody (HAHA) are negative.

hRS7-P2PDox
IC50 [1]: 0.35 to 1.09 nM | toxicity of the three dosage schedules ([2]; 45 μg q4dx4, 90 μg weekly×2, single 180 μg (not shown)): similarly low levels of toxicity | tolerability of 4 doses of 45 μg given in 2 weeks ([2]; 4 doses of 45 μg in 2 weeks): tolerated by all animals | MTD ([2]; single bolus protein dose, nude mice bearing NCI-N87): 9 mg/kg | lethal single i.v. dose ([2]; single i.v. dose, antibody amount [~10 μg of P2PDox]): ≥ 300 µg | established tumors regressed ([3]; 4 doses of 45 μg in 2 weeks, therapy began 7 days after transplantation, no re-growth): 100% | inhibition of tumor growth compared with the SN-38 conjugate of the same antibody ([3]; not shown): more effective at inhibiting tumor growth | antitumor effects ([4]; 2.25 mg/kg protein dose twice weekly×2 weeks): specific and significant antitumor effects | inhibition of growth compared with hRS7-SN-38 ([4]; not shown): slightly more effective | inhibition of growth compared with hRS7-SN-38 ([5]; PxPC-3 pancreatic cancer (not shown)): substantially more effective | antitumor effects ([5]; second pancreatic cancer xenograft, 2.25 mg/kg protein dose twice weekly×2 weeks): specific and significant antitumor effects | PK parameters (Cmax, AUC, etc.) [6]: similar | serum concentrations at various times ([6]; single i.v. dose, 30 min to 168 h): no significant differences in serum concentrations | binding of the antibody moiety vs unconjugated hRS7 [7]: No significant difference in binding | cytotoxicity [8]: cytotoxic | specific lysis (ADCC) [9]: not significantly different | average decrease in tumor volume ([10]; 70 mg i.v. every 3 weeks, after two cycles of therapy): 35% | human anti-hRS7 antibody (HAHA) in serum samples ([10]; human, in vivo): negative
